Assay results from article PMC7500870 (Biochemistry, 2020).

Molecular target: Cj1427 (Campylobacter jejuni, UniProt Q0P8I7)
Test: stopped-flow NADH fluorescence, single turnover, global fit by simulation
Type: binding

Chain of Cj1427 (Q0P8I7 whole entry): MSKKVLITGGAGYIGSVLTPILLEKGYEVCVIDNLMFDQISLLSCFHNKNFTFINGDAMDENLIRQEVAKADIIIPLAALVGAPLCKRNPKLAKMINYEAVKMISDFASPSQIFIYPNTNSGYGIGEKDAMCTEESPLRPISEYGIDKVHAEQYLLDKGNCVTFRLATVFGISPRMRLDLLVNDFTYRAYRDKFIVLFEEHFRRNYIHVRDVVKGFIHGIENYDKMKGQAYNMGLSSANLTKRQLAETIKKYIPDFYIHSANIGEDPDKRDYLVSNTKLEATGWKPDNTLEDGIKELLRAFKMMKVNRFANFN

Compound: O=C(O)CCC(=O)C(=O)O [α-ketoglutarate]
- Kd: 165 µM
